One series relates to SUM1315 cells. Kind of series: Mitochondrial membrane potential, JC-1 assay. The format is cell-based. On the procedure: (§1) The impact of free SMI #9 or SMI #9-GNP on mitochondrial membrane potential (Δψm) on SUM1315 and HCC1937 TNBC cells was assessed using JC-1 (Mitocapture, Biovision, Mountainview, Calif.), a potentiometric green fluorescent dye that shifts to red fluorescence within mitochondria with a normal negative […]. Briefly, cells were incubated with the MitoCapture reagent for 15 min at 37° C. and imaged by fluorescence microscopy as described in Shekhar M P et al., Cancer Biol Ther 2008; 7:1774-82.
(§2) The percent of cells showing punctate red fluorescence or diffuse green fluorescence were scored by counting three-five fields of 50-100 cells in each field. Each experiment was repeated at least three times and results expressed as mean±S.E. Statistical significance of differences was determined by Student's t test.

A further series relates to HCC1937 cells. Kind of series: Mitochondrial membrane potential, JC-1 assay. It counts as cell-based. Conditions: overnight, 1 μM. The procedure: as §1, §2
In a further series the test system is PARP-1 in TNBC cells. Kind of series: Western blot of PARP-1 steady-state levels. It counts as cell-based. The settings on record: TNBC cell lines, 24 hours. The procedure:
(§3) Breast cancer cells treated with vehicle, free SMI #9, blank- or SMI #9-GNP (1-5 μM) for 24-96 hours were lysed, and aliquots of lysates containing 25 μg of protein were subjected to SDS-PAGE and western blot analysis of PARP-1 (Cell Signaling), Rad6, LC3-I/II (Cell Signaling), and […] (Sigma). To determine LC3 subcellular localization, control or SMI #9-GNP treated cells were fixed with methanol:acetone (1:1, v/v) and stained with anti-LC3 antibody. Slides were incubated with FITC-conjugated secondary antibody, counterstained with DAPI and analyzed by fluorescence microscopy.
In general terms: Immunoblotting shows a protein as a band on a membrane.

Series [1] concerns nontransformed MCF10A human breast cells. Kind of series: Cell survival assay (MTT or trypan blue). The settings on record: 72 hours. The format is cell-based. On the procedure: (§4) MDA-MB-231, SUM-1315, MDA-MB-468, and HCC1937 TNBC cells (ATCC) were maintained in Dulbecco's Modified Eagle's Medium (DMEM)/F-12 supplemented with 5% fetal bovine serum. Nontransformed MCF10A human breast cells were maintained in DMEM/F12 supplemented with 5% horse serum, 20 ng/ml epidermal growth factor, 10 μg/ml insulin, 0.5 μg/ml hydrocortisone and 0.10 μg/ml cholera toxin. Sensitivity to SMI #9-GNP was assessed by trypan blue staining or MTT colorimetric assay. Briefly, cells were seeded in 96-well plates at a density of 5-7×10^3 cells per well and allowed to attach overnight. Cells were treated with free SMI #9, SMI #9-GNP, or blank-GNP at various concentrations in triplicates for 72 hours. In some cases, treatments included various doses of cisplatin singly or in combination with SMI #9-GNP. On the final day, medium was replaced with drug free medium, incubated with MTT at 37° C. for 2-3 hours. The medium and MTT were removed, and the MTT-formazan crystals dissolved in 200 μl of 0.04 N HCl/isopropanol, and absorbance measured at 570 nm using the Synergy 2 multi-well plate reader. Alternately, cultures were trypsinized and cell viability determined by trypan blue exclusion using the Biorad TC10 automatic cell counter. At least two to three independent experiments were performed for each cell line.

The next series relates to HCC1937 TNBC cells. Kind of series: Cell survival assay (MTT or trypan blue). It counts as cell-based. Conditions: Homo sapiens, 72 hours. The procedure: as §4
The test system of another series is MDA-MB-468 TNBC cells. Kind of series: Cell survival assay (MTT or trypan blue). It counts as cell-based. The settings on record: Homo sapiens; MDA-MB-468 cells, 72 hours. On the procedure:
as §4

The test system of series [2] is LC3-I/LC3-II in MDA-MB-231 cells. Kind of series: Western blot of LC3-I/II. It counts as cell-based. Conditions: 24 hours. The procedure:
as §3

The subject of series [3] is LC3-I/LC3-II in SUM1315 cells. Kind of series: Western blot of LC3-I/II. The format is cell-based. The settings on record: 24 h. The procedure: as §3
The subject of series [4] is MDA-MB-468 or SUM1315 triple negative breast cancer cell derived tumors. Kind of series: Orthotopic tumor growth assay, tumor line not given. It counts as in vivo. The settings on record: female nude mice, 1.5 mg/kg intratumorally every fourth day. The procedure: (§5) MDA-MB-468 or SUM1315 triple negative breast cancer cells (1×10^6 cells suspended in 0.1 ml Matrigel) were injected subcutaneously into the fatpads of fourth and fifth inguinal mammary glands of female nude mice. Mice were randomized and treatments with SMI #9-GNP (0.285 mg/kg body wt), SMI #9 free drug (1.5 mg/kg body wt.), blank-GNP (volumes equivalent to SMI #9-GNP), or vehicle control were initiated upon detection of palpable lesions. Control vehicle or SMI #9 free drug was administered intratumorally whereas blank-GNP and SMI #9-GNP were administered intraperitoneally. Treatments were given every fourth day. Tumor volumes and body weights were measured twice a week and mice were monitored for weight loss, gastrointestinal distress, activity, body posture, and food/water intake. Mice were sacrificed at 35-44 days postimplantation. Tumors were harvested and weighed.

For series [5], the system named is SUM1315 triple negative breast cancer cell derived tumors. Kind of series: Orthotopic tumor growth assay. The format is in vivo, mice. Conditions: SUM1315 xenografts, intraperitoneal injection at 5 mg/kg. On the procedure:
as §5, with “Mice were randomized and treatments with SMI #9-GNP (0.285 mg/kg body wt), SMI #9 free drug (1.5 mg/kg body wt.), blank-GNP (volumes equivalent to SMI #9-GNP), or vehicle control were initiated upon detection of palpable lesions.” left out

A further series can be described thus: in vivo. More on the design: species or system mice. Conditions: mouse, iv, 5 mg/kg. On the procedure: To determine release of conjugated drugs and metabolic stability of GNP conjugates, mice were given a single i.v. injection of SMI #9-GNP at 5 mg/kg body wt. Blood samples were collected at 0, 5 min, 15 min, 30 min, 1 h, 2 h, 4 h, 8 h, and 24 h post-injection. Similarly, to assess the stability of SMI #9 as a free drug, a single i.v. injection of SMI #9 at 5 mg/kg was injected and blood samples collected. Concentrations of SMI #9 in plasma were determined by tandem LC-MS/MS and non-compartmental analysis with WinNonlin v5.2 (Pharsight).

The subject of another series is MDA-MB-231 TNBC cells. Kind of series: Cell survival assay (MTT or trypan blue). Conditions: Homo sapiens; MDA-MB-231 cells, 72 hours; for SMI #9-GNP based on the concentration of SMI #9. The procedure:
as §4

Another series deals with SUM1315 TNBC cells. Kind of series: Cell survival assay (MTT or trypan blue). Conditions: 72 hours, for SMI #9-GNP based on the concentration of SMI #9. On the procedure:
as §4

Consider 1 molecule from US10588985B2, “Compositions and methods relating to RAD6 inhibition” (Wayne State University, priority 2015, dated 2020).

Turning to `Nc1nc(COC(=O)c2ccc([N+](=O)[O-])cc2)nc(Nc2ccccc2)n1` [SMI #9], in the series on SUM1315 cells, the mitochondrial integrities result is “similarly and dramatically compromised”. The “JC-1 punctate red fluorescence” value in the series with SUM1315 cells (overnight, 1 μM) is “reduced the punctate red fluorescence staining”; in the series on HCC1937 cells, “reduced the punctate red fluorescence staining”. In addition, the “PARP-1 processing / steady-state levels” value in the series on PARP-1 in TNBC cells is recorded as “stabilization/hyperactivation of PARP-1”. The “sensitivity (growth inhibition)” value in [1] is listed as “unaffected”. Besides, the GI50 (as a rule, the concentration giving 50% growth inhibition) in the series on HCC1937 TNBC cells came to 1.8 µM; in the series with MDA-MB-468 TNBC cells it was 3 µM; in the series on MDA-MB-231 TNBC cells, 5 µM; with SUM1315 TNBC cells, 6 µM. In [2], the “LC3-I and LC3-II levels” value is “downregulated both LC3-I and LC3-II”. Further, in [3], the “changes in LC3-I processing” value is “not readily apparent”. The tumor growth entry in series [4] is on record as “tumor growth inhibition compared to controls”; in series [5], “no significant change in tumor growth”. For the same molecule, the highest level in “in vivo” (Cmax) was 409 nM. The Tmax – broadly, the time from dosing to the highest level – in “in vivo” was approximately 5 min.
